Here are results for one compound from ChEMBL document CHEMBL3045128, “Borrelidin, a potent antifungal agent: insight into the antifungal mechanism against Phytophthora sojae” (J Agric Food Chem, 2012).

SMILES strings stand for the structures. Values after ≈ are worked out from the molar mass of the structure shown. Active and inactive are the calls of the source. No cut-off for these calls is given here.

In one assay the target is T1, Threonyl-tRNA synthase (Phytophthora sojae, UniProt G3FIN0).
T1 sequence (G3FIN0 whole entry): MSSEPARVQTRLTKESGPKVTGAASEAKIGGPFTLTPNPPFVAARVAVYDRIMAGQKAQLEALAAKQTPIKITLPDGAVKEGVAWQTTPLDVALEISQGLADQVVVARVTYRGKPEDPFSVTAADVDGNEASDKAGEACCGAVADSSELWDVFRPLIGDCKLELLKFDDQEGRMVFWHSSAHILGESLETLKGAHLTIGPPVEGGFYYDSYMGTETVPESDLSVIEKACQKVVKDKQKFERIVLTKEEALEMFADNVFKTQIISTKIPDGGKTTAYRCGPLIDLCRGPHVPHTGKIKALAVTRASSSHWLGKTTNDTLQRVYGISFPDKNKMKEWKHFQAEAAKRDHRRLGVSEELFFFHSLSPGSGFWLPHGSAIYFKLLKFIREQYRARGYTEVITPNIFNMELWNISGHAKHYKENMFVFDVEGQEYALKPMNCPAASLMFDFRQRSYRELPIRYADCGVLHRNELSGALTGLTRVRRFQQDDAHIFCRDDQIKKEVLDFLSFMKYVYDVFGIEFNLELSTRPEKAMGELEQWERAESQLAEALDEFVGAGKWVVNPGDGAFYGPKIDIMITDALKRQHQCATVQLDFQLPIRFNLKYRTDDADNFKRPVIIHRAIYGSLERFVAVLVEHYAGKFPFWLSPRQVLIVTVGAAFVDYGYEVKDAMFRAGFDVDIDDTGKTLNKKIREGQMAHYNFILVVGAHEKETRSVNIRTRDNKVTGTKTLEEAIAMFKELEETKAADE
The experiment in a line: Inhibition of C-terminal His6-tagged Phytophthora sojae race 1 recombinant ThrRS expressed in Escherichia coli BL21 (Codonplus DE3) assessed as reduction in initial velocity at the step of threonine activation preincubated for 10 min with 4 uM enzyme before threonine addition measured after 30 min by HPLC analysis.

The test system of assay [1] is Phytophthora sojae. The experiment in a line: Antifungal activity against Phytophthora sojae race 1 assessed as radial growth inhibition at 0.006 ug/ml incubated at 28 degC in the dark for 6 to 8 days in presence of 0.6 mM threonine. The assay is classed as functional, organism-based.
The target in assay [2] is T2, Threonyl-tRNA synthase (Phytophthora sojae) (UniProt G3FIN0).
T2 sequence (whole entry): T1 sequence (G3FIN0 whole entry)
Briefly: Binding affinity to C-terminal His6-tagged Phytophthora sojae race 1 recombinant ThrRS expressed in Escherichia coli BL21 (Codonplus DE3) assessed as static fluorescence quenching by FRET analysis.

Assay [3] concerns the target T2, Threonyl-tRNA synthase (Phytophthora sojae). Briefly: Binding affinity to C-terminal His6-tagged Phytophthora sojae race 1 recombinant ThrRS expressed in Escherichia coli BL21 (Codonplus DE3) assessed as positive entropy and enthalpy changes by themodynamic analysis.
Assay [4] deals with Phytophthora sojae. Briefly: Antifungal activity against Phytophthora sojae race 1 assessed as radial growth inhibition at 0.008 ug/ml incubated at 28 degC in the dark for 6 to 8 days in presence of 0.2 to 0.6 mM alanine. It is filed as functional, organism-based.
The target in assay [5] is T2, Threonyl-tRNA synthase (Phytophthora sojae). The experiment in a line: Binding affinity to C-terminal His6-tagged Phytophthora sojae race 1 recombinant ThrRS expressed in Escherichia coli BL21 (Codonplus DE3) assessed as increase in alpha helicity of the protein at protein to compound ratio of 1:1 by CD spectroscopy (reference value: 18.3%).
Assay [6] has the same target. Briefly: Binding affinity to C-terminal His6-tagged Phytophthora sojae race 1 recombinant ThrRS expressed in Escherichia coli BL21 (Codonplus DE3) assessed as Stern-Volmer quenching constant at 47 degC by fluorescence spectroscopy.
Assay [7] deals with Phytophthora sojae. The experiment in a line: Antifungal activity against Phytophthora sojae race 1 assessed as radial growth inhibition at 0.008 ug/ml incubated at 28 degC in the dark for 6 to 8 days in presence of 0.2 to 0.6 mM glutamine. The assay is classed as functional, organism-based.
Assay [8] addresses T2, Threonyl-tRNA synthase (Phytophthora sojae). The experiment in a line: Binding affinity to C-terminal His6-tagged Phytophthora sojae race 1 recombinant ThrRS expressed in Escherichia coli BL21 (Codonplus DE3) assessed as quenching rate constant at 37 degC by fluorescence spectroscopy.
For assay [9] the target is unchanged. Briefly: Binding affinity to C-terminal His6-tagged Phytophthora sojae race 1 recombinant ThrRS expressed in Escherichia coli BL21 (Codonplus DE3) assessed as decrease in beta sheet content of the protein at protein to compound ratio of 1:5 by CD spectroscopy (reference value: 25.6%). Set-up: scale not given: the % may be the effect or the level left.
The target is the same in assay [10]. The experiment in a line: Binding affinity to C-terminal His6-tagged Phytophthora sojae race 1 recombinant ThrRS expressed in Escherichia coli BL21 (Codonplus DE3) assessed as Stern-Volmer quenching constant at 27 degC by fluorescence spectroscopy.
The target is the same in assay [11]. Briefly: Binding affinity to C-terminal His6-tagged Phytophthora sojae race 1 recombinant ThrRS expressed in Escherichia coli BL21 (Codonplus DE3) assessed as decrease in beta sheet content of the protein at protein to compound ratio of 1:1 by CD spectroscopy (reference value: 25.6%). Set-up: scale not given: the % may be the effect or the level left.
The target is the same in assay [12]. Briefly: Binding affinity to C-terminal His6-tagged Phytophthora sojae race 1 recombinant ThrRS expressed in Escherichia coli BL21 (Codonplus DE3) at 20 to 200 uM at 27 to 47 degC after 30 min by fluorescence quenching assay.
The target is the same in assay [13]. Briefly: Binding affinity to C-terminal His6-tagged Phytophthora sojae race 1 recombinant ThrRS expressed in Escherichia coli BL21 (Codonplus DE3) assessed as increase in alpha helicity of the protein at protein to compound ratio of 1:5 by CD spectroscopy (reference value: 18.3%).
Assay [14] shares this target. The experiment in a line: Binding affinity to C-terminal His6-tagged Phytophthora sojae race 1 recombinant ThrRS expressed in Escherichia coli BL21 (Codonplus DE3) assessed as Stern-Volmer quenching constant at 37 degC by fluorescence spectroscopy.
Assay [15] has the same target. The experiment in a line: Binding affinity to C-terminal His6-tagged Phytophthora sojae race 1 recombinant ThrRS expressed in Escherichia coli BL21 (Codonplus DE3) assessed as quenching rate constant at 47 degC by fluorescence spectroscopy.
Assay [16] has the same target. Briefly: Binding affinity to C-terminal His6-tagged Phytophthora sojae race 1 recombinant ThrRS expressed in Escherichia coli BL21 (Codonplus DE3) assessed as equilibrium binding constant by fluorescence spectroscopy.
For the next assay, the system named is Pythium. The experiment in a line: Antifungal activity against Pythium species. The assay is classed as functional, organism-based.
Assay [17] relates to Phytophthora sojae. The experiment in a line: Antifungal activity against Phytophthora sojae race 1 assessed as radial growth inhibition at 0.008 ug/ml incubated at 28 degC in the dark for 6 to 8 days in presence of 0.2 to 0.6 mM L-aspargine. It is filed as functional, organism-based.
Assay [18] deals with T2, Threonyl-tRNA synthase (Phytophthora sojae). Briefly: Binding affinity to C-terminal His6-tagged Phytophthora sojae race 1 recombinant ThrRS expressed in Escherichia coli BL21 (Codonplus DE3) assessed as quenching rate constant at 27 degC by fluorescence spectroscopy.
For assay [19], the system named is Phytophthora sojae. The experiment in a line: Antifungal activity against Phytophthora sojae race 1 assessed as radial growth inhibition at 0.008 ug/ml incubated at 28 degC in the dark for 6 to 8 days in presence of 0.2 to 0.6 mM tyrosine. It is filed as functional, organism-based.

As a reminder, the IC50 is the concentration needed to halve the response being measured. Usually EC50 stands for the concentration giving half of the maximal effect. Consider `C[C@@H]1C[C@H](C)C[C@H](C)[C@@H](O)CC(=O)O[C@H]([C@@H]2CCC[C@H]2C(=O)O)C/C=C/C=C(/C#N)[C@H](O)[C@@H](C)C1` [BORRELIDIN], for which the IC50 on Threonyl-tRNA synthase is 8 µM. The Ki on Threonyl-tRNA synthase (read-out: Ki(app)) was 10 µM. Besides, the “growth inhibition (GI)” value in the assay with Phytophthora sojae [1] is “inactive”. Also, the outcome in assay [2], in [3] and in [12] was Active. The “growth inhibition (GI)” value with Phytophthora sojae [4], in the assay on Phytophthora sojae [7], with Phytophthora sojae [17] and with Phytophthora sojae [19] was “Active” throughout. Also, the Activity in assay [5] was 24.4%; in assay [9], 21.8%; in assay [11] it was 22.4%; in assay [13], 25.7%. In addition, the values for the KSV in [6], in [10] and in assay [14] were 1.23 ×10⁴ /M, 1.54 ×10⁴ /M and 1.33 ×10⁴ /M, respectively. The Kq stood at 1.33 ×10¹² L/mol/s in assay [8], 1.23 ×10¹² L/mol/s in assay [15] and 1.54 ×10¹² L/mol/s in [18]. Further, the KA in assay [16] is 2.55 ×10⁵ /M. Also, the EC50 in the assay with Pythium came to 0.01 µg/mL (≈ 0.0204 µM).
